Test results from publication PMC5652073 (ACS chemical biology, 2017).
Entries after “also recorded” stand apart in the source; their conditions may differ. Where two headings read alike, the source gives them in different places. Each block holds one compound with its values, some of them ahead of it.

Key:
[1] = system: PDGFR; details: read-out: inhibition of PDGFR, cell-free assay; cited from earlier work
[2] = system: VEGFR; details: read-out: inhibition of VEGFR, cell-free assay; cited from earlier work
[3] = system: c-KIT; details: read-out: inhibition of c-KIT, cell-free assay; cited from earlier work
[4] = molecular target: MEK5 (Homo sapiens, UniProt Q13163); assay: ADP-Glo biochemical kinase assay, MEK5; details: functional profiling assay
[5] = molecular target: T1, MEK7 (Homo sapiens, UniProt O14733); assay: ADP-Glo biochemical kinase assay, MEK7; details: functional profiling assay
T1 sequence (O14733 1-419): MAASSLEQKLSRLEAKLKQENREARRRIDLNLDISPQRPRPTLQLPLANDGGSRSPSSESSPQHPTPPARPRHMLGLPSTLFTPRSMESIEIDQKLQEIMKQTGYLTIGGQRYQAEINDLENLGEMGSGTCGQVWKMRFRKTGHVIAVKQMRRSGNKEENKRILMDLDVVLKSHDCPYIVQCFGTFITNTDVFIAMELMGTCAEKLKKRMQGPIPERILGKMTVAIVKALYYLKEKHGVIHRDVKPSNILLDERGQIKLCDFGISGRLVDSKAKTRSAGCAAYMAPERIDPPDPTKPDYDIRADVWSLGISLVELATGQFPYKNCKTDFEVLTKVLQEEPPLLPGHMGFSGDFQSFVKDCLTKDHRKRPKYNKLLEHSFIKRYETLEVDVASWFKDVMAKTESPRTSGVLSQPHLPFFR

[6] = molecular target: T2, MEK6 (Homo sapiens, UniProt P52564); assay: ADP-Glo biochemical kinase assay, MEK6
T2 sequence (P52564 1-334): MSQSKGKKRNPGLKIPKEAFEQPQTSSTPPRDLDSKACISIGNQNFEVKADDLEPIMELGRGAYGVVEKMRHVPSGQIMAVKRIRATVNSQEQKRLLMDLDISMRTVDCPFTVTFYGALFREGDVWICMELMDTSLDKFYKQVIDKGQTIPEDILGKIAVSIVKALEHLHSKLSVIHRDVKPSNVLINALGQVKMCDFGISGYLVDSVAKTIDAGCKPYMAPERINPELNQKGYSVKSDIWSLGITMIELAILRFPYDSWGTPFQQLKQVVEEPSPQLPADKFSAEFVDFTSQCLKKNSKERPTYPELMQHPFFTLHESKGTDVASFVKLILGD

[7] = molecular target: T3, MEK4 (Homo sapiens, UniProt P45985); assay: ADP-Glo biochemical kinase assay, MEK4; details: read-out: IC50 against MEK4, ATP below Km
T3 sequence (P45985 1-399): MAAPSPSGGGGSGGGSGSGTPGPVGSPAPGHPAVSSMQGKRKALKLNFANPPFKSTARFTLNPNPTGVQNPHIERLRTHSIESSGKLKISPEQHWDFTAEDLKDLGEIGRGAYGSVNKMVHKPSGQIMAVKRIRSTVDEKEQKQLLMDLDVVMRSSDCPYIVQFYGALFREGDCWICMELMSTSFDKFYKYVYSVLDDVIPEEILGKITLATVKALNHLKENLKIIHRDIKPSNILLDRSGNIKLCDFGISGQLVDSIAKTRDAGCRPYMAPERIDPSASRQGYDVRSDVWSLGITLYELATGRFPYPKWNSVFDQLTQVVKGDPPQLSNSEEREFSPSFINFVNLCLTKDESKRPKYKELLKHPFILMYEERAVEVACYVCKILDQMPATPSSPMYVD

MEK5, sequence (Q13163 whole entry): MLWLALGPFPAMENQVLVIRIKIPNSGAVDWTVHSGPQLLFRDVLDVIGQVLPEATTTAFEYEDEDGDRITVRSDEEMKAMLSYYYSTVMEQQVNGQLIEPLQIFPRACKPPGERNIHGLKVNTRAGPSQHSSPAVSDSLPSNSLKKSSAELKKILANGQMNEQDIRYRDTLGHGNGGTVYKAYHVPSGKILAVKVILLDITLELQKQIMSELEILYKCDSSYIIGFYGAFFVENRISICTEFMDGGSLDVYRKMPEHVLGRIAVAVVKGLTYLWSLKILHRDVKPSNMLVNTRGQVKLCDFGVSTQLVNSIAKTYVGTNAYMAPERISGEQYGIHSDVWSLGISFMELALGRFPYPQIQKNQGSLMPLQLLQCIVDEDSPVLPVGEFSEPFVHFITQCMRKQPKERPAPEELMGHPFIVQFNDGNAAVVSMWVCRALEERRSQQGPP

- inhibition of MEK7 (in words) [5]: inhibition
Compound: CN(C)C[C@@H]1CCn2cc(c3ccccc32)C2=C(C(=O)NC2=O)c2cn(c3ccccc23)CCO1 [LY-333531]

- IC50 [6]: 60 µM
Compound: CCCS(=O)(=O)Nc1ccc(F)c(C(=O)c2c[nH]c3ncc(Cl)cc23)c1F [PLX-4720]

More lines, now with the values behind:

Compound: 5-[[4-[(2, 3-Dimethyl-2 H-indazol-6-yl) methylamino]-2-pyrimidinyl] amino]-2-methyl-benzene-sulfonamide [Pazopanib]
- IC50 [1]: 0.084 µM
- IC50 [2]: 0.01 to 0.047 µM
- IC50 [3]: 0.14 µM

Compound: CCN1CCN(Cc2ccc(NC(=O)Nc3ccc(Oc4cc(NC)ncn4)cc3)cc2C(F)(F)F)CC1 [AST-487]
- inhibition of MEK5 (in words) [4]: strongly inhibited
- inhibition of MEK7 (in words) [5]: inhibition; also recorded: strongly inhibited

Compound: O=C(c1c(F)cccc1F)c1c[nH]c2ncc(Cl)cc12 [compound 3a]
- IC50 [7]: 6.9 µM
- IC50 ([6]; read-out: IC50 against MEK6, ADP-Glo, ATP below Km): 75.1 µM
